Patent US12527849B2, “Apparatus for determining administration form of a composition of an engineered virus-based nanoparticle for a treatment of an autoimmune condition” (Diamante Srl, priority 2021, dated 2026)

What was measured:
IL-6 = test: Pro-inflammatory cytokines in sera of CIA Collagen mice (ELISA, day 58): IL-6; format: in vivo; conditions: Dexamethasone oral 1 mg/kg, 20 times between day 28 and 57
Description: (§1) Critical administration 124 disclosed herein is further described below. Q5D represents administration 5 days a part. TBSV·pLIp1 and wt TBSV shown in Table 1 may include liquid form that are not sterile and stored in −20° C. TBSV·pLIp1 may be given at the dose of 50 μG/100 μL Male DBA/1J mice (8 weeks; Envigo, Italy) may be used for these studies. Mice may be housed in individual cages (two for each group) and maintained under a 12:12 light-dark cycle at 21° C.±1° C. and 50%±5% humidity. The animals may be acclimated to their environment for 1 week and had ad libitum access to tap water and standard rodent diet. All animal experiments may be complied with regulations in Italy (D.M. 116192), Europe (O.J of E.C. L 358/112/18/1986), and the United States (Animal Welfare Assurance Number A5594-01, Department of Health and Human Services, USA). […] Arthritis was assessed by using qualitative severity score system and hind paw volume (mL) measured by a plethysmometer on day 20, 22, 24, 26, 28, 30, 32, 34, 36, 38, 40, 42, 44, 46 48, 50, 52, 54, 56 and 58. Body weight was recorded on day 0, 6, 13, 16, 18, 20, 22, 24, 26, 28, 30, 32, 34, 36, 38, 40, 42, 44, 46, 50, 52, 54, 56 and 58. […]

IL-17A = test: Pro-inflammatory cytokines in sera of CIA Collagen mice (ELISA, day 58): IL-17A; format: in vivo; conditions: Dexamethasone oral 1 mg/kg, 20 times between day 28 and 57
Description: as §1

C[C@@H]1C[C@H]2[C@@H]3CCC4=CC(=O)C=C[C@]4(C)[C@@]3(F)[C@@H](O)C[C@]2(C)[C@@]1(O)C(=O)CO [Dexamethasone, dexamethasone]
IL-6, % of reduction vs CIA Collagen (IL-6): 40.13% | IL-17A, % of reduction vs CIA Collagen (IL-17A): 25.07%
